Assay results reported in BigSolDB 2.1.

O=C(/C=C/C=C/c1ccc2c(c1)OCO2)N1CCCCC1
solubility (mole fraction)
Settings | 278.15 K | 283.15 K | 288.15 K | 293.15 K | 298.15 K | 303.15 K | 308.15 K | 313.15 K | 318.15 K
in acetone | 0.00485 | 0.00589 | 0.00706 | 0.0083 | 0.00973 | 0.0113 | 0.0129 | 0.0146 | 0.0166
in ethanol | 0.00413 | 0.00503 | 0.00607 | 0.00714 | 0.00827 | 0.00966 | 0.0111 | 0.0126 | 0.0143
in ethyl acetate | 0.00807 | 0.0104 | 0.0132 | 0.0161 | 0.0194 | 0.0232 | 0.0274 | 0.0321 | 0.0373
